In ChEMBL document CHEMBL1145587, “Facile formation of hydrophilic derivatives of 5H-8,9-dimethoxy-5-[2-(N,N-dimethylamino)ethyl]-2,3-methylenedioxydibenzo[c,h] [1,6]naphthyridin-6-one (ARC-111) and its 12-aza analog via quaternary ammonium intermediates” (Bioorg Med Chem Lett, 2008) one finds IC50 and Activity data, which are given here for eleven compounds.

Broadly, the IC50 is the point on the concentration scale where inhibition reaches its midpoint. The low end stands for higher potency, the high end for lower potency.

One experiment concerns P388. The experiment is described as follows: Cytotoxicity against […] cells. Type of experiment: functional, cell-based. The following applies: Mus musculus.
Experiment [1] is described as follows: Cytotoxicity against […] cells. Type of experiment: functional, cell-based. The following applies: Mus musculus, P388CPT45.
A short description of experiment [2]: Cytotoxicity against human camptothecin-resistant CPT-K5 cells. Type of experiment: functional, cell-based.
The target in experiment [3] is T1, DNA topoisomerase 1 (Homo sapiens) (UniProt P11387).
T1 sequence (whole entry): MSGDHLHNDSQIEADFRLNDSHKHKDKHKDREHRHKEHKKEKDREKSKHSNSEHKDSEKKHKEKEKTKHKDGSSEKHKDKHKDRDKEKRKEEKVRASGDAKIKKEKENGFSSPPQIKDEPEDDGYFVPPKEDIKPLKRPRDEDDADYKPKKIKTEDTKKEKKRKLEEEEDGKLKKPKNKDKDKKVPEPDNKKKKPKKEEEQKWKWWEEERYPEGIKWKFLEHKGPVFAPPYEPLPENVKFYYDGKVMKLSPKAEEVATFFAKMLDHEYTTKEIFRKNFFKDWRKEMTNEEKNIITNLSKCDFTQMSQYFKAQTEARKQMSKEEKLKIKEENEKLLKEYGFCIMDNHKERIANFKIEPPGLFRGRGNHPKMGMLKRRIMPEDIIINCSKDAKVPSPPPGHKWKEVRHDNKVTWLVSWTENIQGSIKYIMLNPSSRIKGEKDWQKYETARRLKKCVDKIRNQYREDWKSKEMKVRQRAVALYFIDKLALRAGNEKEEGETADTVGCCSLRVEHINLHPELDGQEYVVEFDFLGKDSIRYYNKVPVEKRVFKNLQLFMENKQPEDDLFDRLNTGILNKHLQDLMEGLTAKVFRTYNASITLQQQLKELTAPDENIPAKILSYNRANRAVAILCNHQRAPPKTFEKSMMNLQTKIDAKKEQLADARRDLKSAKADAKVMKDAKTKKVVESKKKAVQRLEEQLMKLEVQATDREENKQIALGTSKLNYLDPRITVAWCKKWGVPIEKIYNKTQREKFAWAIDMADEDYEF
The experiment is described as follows: Effect on human topoisomerase 1-mediated plasmid DNA cleavage relative to topotecan.

Experiment [4] can be described thus: Cytotoxicity against human […] cells. Type of experiment: functional, cell-based.

Take `COc1cc2c(=O)n(CCN(C)C)c3c4cc5c(cc4ncc3c2cc1OC)OCO5`: the IC50 with P388 was found to be 1 nM; in experiment [1], 230 nM; in experiment [2] it was 900 nM; in experiment [4] it was 2 nM. This compound also showed an Activity in experiment [3] of 0.3.
On to `COc1cc2c(=O)n(CCN(C)C)c3c4cc5c(cc4nnc3c2cc1OC)OCO5`, for which the IC50 turned out to be 2 nM in the experiment with P388, 230 nM in experiment [1], 740 nM in experiment [2] and 2 nM in experiment [4]. In experiment [3], this compound registered an Activity of 0.3.
For `COc1cc2c(=O)n(CCN(C)CCN(C)C)c3c4cc5c(cc4ncc3c2cc1OC)OCO5`, the IC50 in the experiment with P388 was found to be 35 nM; in experiment [1], 70 nM; in experiment [2], 2200 nM; in experiment [4], 45 nM. In experiment [3], this compound registered an Activity of 0.7.
The like results for `CC[C@@]1(O)C(=O)OCc2c1cc1n(c2=O)Cc2cc3ccccc3nc2-1` [CAMPTOTHECIN] were, in that order, 4 nM, greater than 10000 nM, greater than 10000 nM, 4 nM and 0.2.
The like results for `COc1cc2c(=O)n(CCn3ccnc3)c3c4cc5c(cc4ncc3c2cc1OC)OCO5` were, in that order, 200 nM, greater than 10000 nM, greater than 10000 nM, 210 nM and 2.3.
`COc1cc2c(=O)n(CCNC(CO)(CO)CO)c3c4cc5c(cc4ncc3c2cc1OC)OCO5`: the IC50 with P388 was found to be 330 nM; in experiment [1], 3500 nM; in experiment [2], 7000 nM; in experiment [4], 330 nM. Besides, the Activity in experiment [3] was found to be 2.
For `COc1cc2c(=O)n(CCN(C)CCN(C)C)c3c4cc5c(cc4nnc3c2cc1OC)OCO5`, the IC50 in the experiment with P388 worked out at 19 nM; in experiment [1], 300 nM; in experiment [2], 2200 nM; in experiment [4], 33 nM. This compound also gave an Activity in experiment [3] of 0.4.
Take `COc1cc2c(=O)n(CCNC(CO)(CO)CO)c3c4cc5c(cc4nnc3c2cc1OC)OCO5`: the IC50 in the experiment with P388 is 40 nM; in experiment [1] it was 3000 nM; in experiment [2] it was 5700 nM; in experiment [4] it was 65 nM. In experiment [3], this compound had an Activity of 0.2.
As for `COc1cc2c(=O)n(CCO)c3c4cc5c(cc4nnc3c2cc1OC)OCO5`, the IC50 came to 12 nM in the experiment with P388, 700 nM in experiment [1], 1300 nM in experiment [2] and 13 nM in experiment [4]. The compound also displayed an Activity in experiment [3] of 0.3.
The like results for `COc1cc2c(=O)n(CCn3ccnc3)c3c4cc5c(cc4nnc3c2cc1OC)OCO5` were, in that order, 190 nM, greater than 10000 nM, greater than 10000 nM, 400 nM and 0.1.
The like results for `COc1cc2c(=O)n(CCO)c3c4cc5c(cc4ncc3c2cc1OC)OCO5` were, in that order, 30 nM, 900 nM, greater than 10000 nM, 30 nM and 4.7.
